These are literature values, as cited in patent US7351421B2, “Drug-eluting stent having collagen drug carrier chemically treated with genipin” (priority 1996, dated 2008).

For data set [1], the system named is mice.
For data set [2], the system named is 3T3 fibroblasts. The following applies: in vitro.
In data set [3] the test system is CHO-K1 cells. The following applies: in vitro.
For data set [4], the system named is tissue culture.
The conditions of data set [5]: glutaraldehyde used to crosslink materials.
Data set [6] has as its system intimal proliferation. The following applies: de-endothelialized rabbits, in vivo.
Data set [7] deals with intimal proliferative lesion. The note with it: in vivo.
For data set [8], the system named is smooth muscle cell. The following applies: in vitro.

Entries after “also recorded” stand apart in the source; their conditions may differ. Where only a bound is given, the exact number is not on record here.

On to `COC(=O)C1=CO[C@@H](O)[C@@H]2C(CO)=CC[C@H]12` [Genipin], for which the LD50 i.v. in data set [1] is reported as 382 mg/k. For the same compound, in data set [2], the “cytotoxicity compared with glutaraldehyde” value is reported as “substantially less cytotoxic; also recorded: significantly less cytotoxic”. The “clastogenic response (genotoxicity)” value in data set [3] was “does not cause clastogenic response”.

`O=CCCCC=O` [glutaraldehyde]: the “concentration at which cytotoxic” value in data set [4] was 10-25 ppm. The “concentration at which cytotoxic in tissue culture” value in data set [4] (tissue culture, as low as) is recorded as at least 3 ppm. Moreover, the “crosslinking concentration giving persistent foreign-body reaction” value in data set [5] was “above 0.05%”.

Consider cyclosporin A, for which the “reduction of intimal proliferation” value in data set [6] is reported as “no significant reduction”. In addition, the “effect on intimal proliferative lesion following arterial balloon catheterization” value in data set [7] is given as “inhibition”. Further, the “effect on smooth muscle cell proliferation” value in data set [8] is on record as “did not inhibit”.
